Test results: patent US20200131180A1, “POSITIVE ALLOSTERIC MODULATORS OF THE MUSCARINIC ACETYLCHOLINE RECEPTOR M1” (Vanderbilt University, priority 2018, published 2020)

Target: T1, human mAChR M1 (Homo sapiens, UniProt P11229)
T1 sequence (P11229 1-460): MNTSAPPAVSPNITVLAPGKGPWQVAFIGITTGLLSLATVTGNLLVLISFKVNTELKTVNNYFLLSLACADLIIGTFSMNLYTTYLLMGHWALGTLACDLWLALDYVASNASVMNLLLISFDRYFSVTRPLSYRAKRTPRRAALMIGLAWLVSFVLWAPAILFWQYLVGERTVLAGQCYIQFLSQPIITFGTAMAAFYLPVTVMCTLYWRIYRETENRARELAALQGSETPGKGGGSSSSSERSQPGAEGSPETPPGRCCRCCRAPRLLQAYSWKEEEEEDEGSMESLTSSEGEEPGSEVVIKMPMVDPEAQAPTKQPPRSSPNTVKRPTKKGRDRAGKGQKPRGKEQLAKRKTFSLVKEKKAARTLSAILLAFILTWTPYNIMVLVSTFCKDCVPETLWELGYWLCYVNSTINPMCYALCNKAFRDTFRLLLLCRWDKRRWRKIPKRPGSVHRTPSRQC
Experiment: mAChR M1 cell-based functional assay (calcium mobilization, PAM activity)
Details: CHO-K1 cells expressing hM1, calcium flux (Fluo-4); for Emax: potentiation of EC20 acetylcholine response; for EC50: concentration-dependent increase in the EC20 acetylcholine response
Excerpt: Chinese hamster ovary (CHO-K1) cells stably expressing rat (r)M1 were purchased from the American Type Culture Collection and cultured according to their indicated protocol. CHO cells stably expressing human (h)M2, hM3, and hM5 were described previously (Levey, et al., 1991); hM1 and hM4 cDNAs were purchased from Missouri S&T cDNA Resource; rM4 cDNA was provided by T. I. Bonner (National Institutes of Health, Bethesda, Md.). rM2 and rM3 were cloned from a rat brain cDNA library and sequence verified. hM1, rM2, rM3, hM4, and rM4 cDNAs were used to stably transfect CHO-K1 cells purchased from the American Type Culture Collection using Lipofectamine 2000. To make stable rM2, hM2, rM3, hM4, and rM4 cell lines for use in calcium mobilization assays, these cells also were stably transfected with a chimeric G-protein (Gqi5) (provided by B. R. Conklin, University of California, San Francisco) using Lipofectamine 2000. rM1, hM1, rM3, hM3, rM5, and hM5 cells were grown in Ham's F-12 medium containing 10% heat-inactivated fetal bovine serum (FBS), 20 mM HEPES, and 50 μg/mL G418 sulfate. rM2-Gqi5, hM2-Gqi5, and hM4-Gqi5 cells were grown in the same medium also containing 500 μg/mL Hygromycin B. Stable rM4-Gqi5 cells were grown in DMEM containing 10% heat-inactivated FBS, 20 mM HEPES, 400 μg/mL G418 sulfate, and 500 μg/mL Hygromycin B.
For high throughput measurement of agonist-evoked increases in intracellular calcium, CHO-K1 cells stably expressing muscarinic receptors were plated in growth medium lacking G418 and hygromycin at 15,000 cells/20 μL/well in Greiner 384-well black-walled, tissue culture (TC)-treated, clear-bottom plates (VWR). Cells were incubated overnight at 37° C. and 5% CO2. The next day, cells were washed using an ELX 405 (BioTek) with four washes (80 μL) of assay buffer then aspirated to 20 μL. Next, 20 μL of 16 μM Fluo-4/acetoxymethyl ester (Invitrogen, Carlsbad, Calif.) prepared as a 2.3 mM stock in DMSO and mixed in a 1:1 ratio with 10% (w/v) Pluronic F-127 and diluted in assay buffer was added to the wells and the cell plates were incubated for 50 min at 37° C. and 5% CO2. Dye was removed by washing with the ELX 405 (four 80 μL washes of assay buffer) then aspirated to 20 μL. Compound master plates were formatted in an 11 point CRC format (1:3 dilutions) in 100% DMSO with a starting concentration of 10 mM using the BRAVO liquid handler (Agilent). Test compound CRCs were then transferred to daughter plates (240 nL) using the Echo acoustic plate reformatter (Labcyte, Sunnyvale, Calif.) and then diluted into assay buffer (40 μL) to a 2× stock using a Thermo Fisher Combi (Thermo Fisher Scientific, Waltham, Mass.).
Calcium flux was measured using the Functional Drug Screening System (FDSS) 6000 (Hamamatsu Corporation, Tokyo, Japan) as an increase in the fluorescent static ratio. Compounds were applied to cells (20 μL, 2×) using the automated system of the FDSS 6000 at 4 s into the 300 s protocol and the data were collected at 1 Hz. At 144 s into the 300s protocol, 10 μL of an EC20 concentration of the muscarinic receptor agonist acetylcholine was added (5×), followed by the addition of 12 μL an EC80 concentration of acetylcholine at the 230 s time point (5×). Agonist activity was analyzed as a concentration-dependent increase in calcium mobilization upon compound addition. Emax values for agonist activity are expressed relative to the maximum for acetylcholine. Positive allosteric modulator activity was analyzed as a concentration-dependent increase in the EC20 acetylcholine response. Antagonist activity was analyzed as a concentration-dependent decrease in the EC80 acetylcholine response. Concentration-response curves were generated using a four-parameter logistical equation in XLfit curve fitting software (IDBS, Bridgewater, N.J.) for Excel (Microsoft, Redmond, Wash.) or Prism (GraphPad Software, Inc., San Diego, Calif.). […]

SMILES | Emax | EC50
Cn1cc(-c2ccc(Cc3cc(C(=O)NC4CCOCC4)c4ncnn4c3)cn2)cn1 [compound 14, 6-[[6-(1-methylpyrazol-4-yl)-3-pyridyl]methyl]-N-tetrahydropyran-4-yl-[1,2,4]triazolo[1,5-a]pyridine-8-carboxamide] | 45% | 
Cn1cc(-c2ccc(Cc3cc(C(=O)N[C@H]4CCOC[C@@H]4O)c4ncnn4c3)c(F)c2)cn1 [compound 47, 6-[[2-fluoro-4-(1-methylpyrazol-4-yl)phenyl]methyl]-N-[(3R,4S)-3-hydroxytetrahydropyran-4-yl]-[1,2,4]triazolo[1,5-a]pyridine-8-carboxamide] | 77% | 404 nM
Cn1ccc(-c2ccc(Cc3cc(C(=O)N[C@H]4CCCC[C@@H]4O)c4ncnn4c3)cn2)n1 [compound 37, N-[(1S,2S)-2-hydroxycyclohexyl]-6-[[6-(1-methylpyrazol-3-yl)-3-pyridyl]methyl]-[1,2,4]triazolo[1,5-a]pyridine-8-carboxamide] | 83% | 3540 nM
Cn1cc(-c2ccc(Cc3cc(C(=O)N[C@H]4CCCC[C@@H]4O)c4ncnn4c3)cc2)cn1 [compound 31, N-[(1S,2S)-2-hydroxycyclohexyl]-6-[[4-(1-methylpyrazol-4-yl)phenyl]methyl]-[1,2,4]triazolo[1,5-a]pyridine-8-carboxamide] | 89% | 739 nM
Cn1ccc(-c2ccc(Cc3cc(C(=O)N[C@H]4CCCC[C@@H]4O)c4ncnn4c3)c(F)c2)n1 [compound 46, 6-[[2-fluoro-4-(1-methylpyrazol-3-yl)phenyl]methyl]-N-[(1S,2S)-2-hydroxycyclohexyl]-[1,2,4]triazolo[1,5-a]pyridine-8-carboxamide] | 79% | 742 nM
Cn1cc(-c2cc(F)c(Cc3cc(C(=O)N[C@H]4CCCC[C@@H]4O)c4ncnn4c3)c(F)c2)cn1 [compound 44, 6-[[2,6-difluoro-4-(1-methylpyrazol-4-yl)phenyl]methyl]-N-[(1S,2S)-2-hydroxycyclohexyl]-[1,2,4]triazolo[1,5-a]pyridine-8-carboxamide] | 82% | 387 nM
Cn1ccc(-c2ccc(Cc3cc(C(=O)N[C@H]4CCCC[C@@H]4O)c4nccn4c3)cn2)n1 [compound 25, N-[(1S,2S)-2-hydroxycyclohexyl]-6-[[6-(1-methylpyrazol-3-yl)-3-pyridyl]methyl]imidazo[1,2-a]pyridine-8-carboxamide] | 83% | 904 nM
Cc1c(Cc2ccc(-c3cnn(C)c3)cc2F)cc(C(=O)N[C@H]2CCCC[C@@H]2O)c2nccn12 [compound 57, 6-[[2-fluoro-4-(1-methylpyrazol-4-yl)phenyl]methyl]-N-[(1S,2S)-2-hydroxycyclohexyl]-5-methyl-imidazo[1,2-a]pyridine-8-carboxamide] | 68% | 97.8 nM
Cn1ccc(-c2ccc(Cc3cc(C(=O)N[C@H]4CCC[C@@H]4O)c4ncnn4c3)cc2)n1 [compound 11, N-[(1S,2S)-2-hydroxycyclopentyl]-6-[[4-(1-methylpyrazol-3-yl)phenyl]methyl]-[1,2,4]triazolo[1,5-a]pyridine-8-carboxamide] | 88% | 2540 nM
Cn1ccc(-c2ccc(Cc3cc(C(=O)N[C@H]4CCOC[C@@H]4O)c4ncnn4c3)c(F)c2)n1 [compound 45, 6-[[2-fluoro-4-(1-methylpyrazol-3-yl)phenyl]methyl]-N-[(3R,4S)-3-hydroxytetrahydropyran-4-yl]-[1,2,4]triazolo[1,5-a]pyridine-8-carboxamide] | 82% | 693 nM
Cn1cc(-c2ccc(Cc3cc(C(=O)N[C@H]4CCC[C@@H]4O)c4ncnn4c3)cn2)cn1 [compound 17, N-[(1S,2S)-2-hydroxycyclopentyl]-6-[[6-(1-methylpyrazol-4-yl)-3-pyridyl]methyl]-[1,2,4]triazolo[1,5-a]pyridine-8-carboxamide] | 86% | 3770 nM
Cn1ccc(-c2ccc(Cc3cc(C(=O)NC4CC5(COC5)C4)c4ncnn4c3)cc2)n1 [compound 9, 6-[[4-(1-methylpyrazol-3-yl)phenyl]methyl]-N-(2-oxaspiro[3.3]heptan-6-yl)-[1,2,4]triazolo[1,5-a]pyridine-8-carboxamide] | 66% | 4860 nM
O=C(N[C@H]1CCOC[C@@H]1O)c1cc(Cc2ccc(-n3cccn3)cc2)cn2ncnc12 [compound 30, N-[(3R,4S)-3-hydroxytetrahydropyran-4-yl]-6-[(4-pyrazol-1-ylphenyl)methyl]-[1,2,4]triazolo[1,5-a]pyridine-8-carboxamide] | 85% | 1270 nM
Cn1cc(-c2ccc(Cc3cc(C(=O)N[C@H]4CCC[C@@H]4O)c4nccn4c3)c(F)c2)cn1 [compound 58, 6-[[2-fluoro-4-(1-methylpyrazol-4-yl)phenyl]methyl]-N-[(1S,2S)-2-hydroxycyclopentyl]imidazo[1,2-a]pyridine-8-carboxamide] | 84% | 991 nM
O=C(NC1CCOCC1)c1cc(Cc2ccc(-n3cccn3)cc2)cn2ncnc12 [compound 36, 6-[(4-pyrazol-1-ylphenyl)methyl]-N-tetrahydropyran-4-yl-[1,2,4]triazolo[1,5-a]pyridine-8-carboxamide] | 47% | 
O=C(N[C@H]1CCCC[C@@H]1O)c1cc(Cc2ccc(-n3cccn3)cc2)cn2ccnc12 [compound 22, N-[(1S,2S)-2-hydroxycyclohexyl]-6-[(4-pyrazol-1-ylphenyl)methyl]imidazo[1,2-a]pyridine-8-carboxamide] | 84% | 610 nM
Cc1c(Cc2ccc(-c3cnn(C)c3)cc2F)cc(C(=O)N[C@H]2CCOC[C@@H]2O)c2nccn12 [compound 56, 6-[[2-fluoro-4-(1-methylpyrazol-4-yl)phenyl]methyl]-N-[(3R,4S)-3-hydroxytetrahydropyran-4-yl]-5-methyl-imidazo[1,2-a]pyridine-8-carboxamide] | 72% | 32.2 nM
Cn1ccc(-c2cc(F)c(Cc3cc(C(=O)N[C@H]4CCCC[C@@H]4O)c4nccn4c3)c(F)c2)n1 [compound 39, 6-[[2,6-difluoro-4-(1-methylpyrazol-3-yl)phenyl]methyl]-N-[(1S,2S)-2-hydroxycyclohexyl]imidazo[1,2-a]pyridine-8-carboxamide] | 58% | 558 nM
Cn1ccc(-c2ccc(Cc3cc(C(=O)N[C@H]4CCCC[C@@H]4O)c4ncnn4c3)cc2)n1 [compound 7, N-[(1S,2S)-2-hydroxycyclohexyl]-6-[[4-(1-methylpyrazol-3-yl)phenyl]methyl]-[1,2,4]triazolo[1,5-a]pyridine-8-carboxamide] | 86% | 483 nM
